Assays:
[1] = system: hippocampal neuronal cell bodies (NeuN); experiment: Hippocampal neuronal loss in Tg2576 mice subjected to CUMS, binding assay with [125I]-labeled anti-NeuN antibody; format: in vivo; details: 15 months-old Tg2576 mice, 3 months of CUMS, treated during CUMS; compounds 10 mg/kg/d
aggregated Agtr2 = experiment: ELISA of aggregated Agtr2 protein in PBMC of rats subjected to CUMS; format: in vivo, rats (Sprague Dawley); details: aged rats, 4 weeks of CUMS, treated during CUMS
Description: More preferably, AGTR2 aggregation is detected with a sandwich ELISA. To this end the following steps can be performed: • (i) The first step of the sandwich ELISA is the immobilization of AGTR2-specific capture antibodies (any species, e.g. rabbit, rat, mouse, cameloid; serum, affinity-enriched; F(ab)2 fragments, nanobodies as generated in step (vi)) on an ELISA plate (Nunc Maxisorb), 0.1-10 microg/well, preferably 1-5 microg, more preferably, 1-2 microg in 100 microL of a suitable buffer (e.g. 0.1 M sodium acetate, 0.1 M NaCl, pH 5.5; or 15.9 mM Na2CO3, 35 mM NaHCO3, pH 9.6) by overnight incubation at 4° C. […] After the incubation time, unbound antibody is removed by washing steps (without Tween 20). • (v) Bound antibody is detected by a substrate reaction, which includes the addition of 50-400 microL, preferably 100-200 microL of substrate buffer (18 microL of 30% H2O2 added to 10.5 ml ABTS solution (22 mg ABTS dissolved in 100 ml of 50 mM sodium citrate, pH 4.0-pH 4.5). Any other substrate (e.g. is also feasible. After an incubation time of 1 min-5 h at 4° C.-37° C., preferably 30 min-1 h, more preferably 30 min at 37° C., optical density is measured at 410 nm, e.g. on a plate reader (Versa Max, Molecular Devices). […]

[2] = system: hyperphosphorylated PHF tau; experiment: Hippocampal hyperphosphorylated PHF tau in aged rats subjected to CUMS, immunoblot; format: in vivo, rats (Sprague Dawley); details: 4 weeks of CUMS, 10 mg/kg/d during CUMS
Agtr2 (AT2R) = experiment: Immunoblot detection of Agtr2 in PBMCs of aged rats subjected to CUMS; format: in vivo, rats (Sprague Dawley); details: 4 weeks of CUMS, treated during CUMS
[3] = Measurement of serum level in rats by HPLC; format: in vivo, Sprague Dawley rats
Experimental: (§1) Serum concentrations of alizarin were determined with serum isolated from the blood of male and female German shepherd dogs (age: 8-9 months) taken at different time points (0.5 h, 1 h, 2 h, 4 h, 6 h, 8 h, 24 h) after oral intake of the indicated doses for 4 weeks. In addition, serum concentrations of alizarin (Compound-1) were determined in male and female Sprague Dawley rats (body weight: 200-250 g) treated for 1 month and/or three months by oral gavage of alizarin at a once daily dose of 100 mg/kg, 50 mg/kg, 25 mg/kg and 12.5 mg/kg. Serum proteins were removed by acetonitrile precipitation, and alizarin was extracted by chloroform before separation on an HPLC-C18 column (Poroshell 120 EC-C18, 3.0×50 mm, Agilent) with an HPLC system (Agilent 1100 Series) and detection at OD245 nm. For quantitative determination of Compound-7 and Compound-10F in rat and dog serum, serum proteins were also removed by acetonitrile precipitation before HPLC analysis as detailed above and detection at OD254 nm.

[4] = system: hyperphosphorylated PHF-Tau; experiment: Hippocampal hyperphosphorylated PHF-Tau in Tg2576 mice subjected to CUMS, binding assay with [125I]-labeled AT8 antibody; format: in vivo; details: 15 months-old Tg2576 mice, 3 months of CUMS, treated during CUMS; compounds 10 mg/kg/d
Tomm6 = target: T1, Tomm6 (Mus musculus, UniProt Q9CQN3); experiment: Immunoblot detection of hippocampal Tomm6 protein in treated Tg2576 mice; format: in vivo; details: Tg2576 AD mice subjected to the CUMS protocol, treated during CUMS (10 mg/kg/d)
T1 construct: hippocampi were isolated from 5-10 aged Tg2576 mice, pulverized under liquid nitrogen and solubilized; from tissue; host or cells: hippocampus of Tg2576 mice
T1 sequence (Q9CQN3 1-74): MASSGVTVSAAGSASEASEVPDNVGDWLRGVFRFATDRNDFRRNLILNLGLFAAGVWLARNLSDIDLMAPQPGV

[5] = Toxic adverse effects during 3 months of treatment of Tg2576 AD mice; format: in vivo; details: daily dose of 10 mg/kg
[6] = Measurement of serum level in dogs by HPLC; format: in vivo, German shepherd dogs
Experimental: as §1

## Cc1nc(CO)cc(-c2ccc(F)cc2)c1C(N)=O [Compound-10F, 4-(4-fluorophenyl)-6-(hydroxymethyl)-2-methyl-pyridine-3-carboxamide]
[1]
  hippocampal neuronal loss: retarded the CUMS-induced hippocampal neuronal loss
Aggregated Agtr2
  PBMC content of aggregated Agtr2 protein (ELISA): significantly retarded the CUMS-induced accumulation of Agtr2 aggregates
[2]
  hippocampal accumulation of hyperphosphorylated PHF tau: prevented the hippocampal accumulation of hyperphosphorylated PHF tau
Agtr2 (AT2R)
  PBMC content of monomeric Agtr2: significantly higher compared to untreated controls
  accumulation of aggregated Agtr2 in PBMCs: prevented the accumulation of aggregated Agtr2
[3]; rats
  oral bioavailability / serum concentrations after oral intake: had oral bioavailability
[3]; rats vs dogs
  oral doses required to achieve equivalent peak serum concentrations, higher in rats compared to dogs: approximately 10 fold
[3]; rats, repeated once daily oral intake of 20 mg/kg/d
  time of peak serum concentration: 1 h
[4]
  hippocampal content of hyperphosphorylated PHF-Tau: significantly inhibited the hippocampal accumulation of hyperphosphorylated PHF tau
Tomm6
  hippocampal Tomm6 protein content: significantly higher
[5]
  toxic adverse effects: did not show any detectable toxic adverse effects
[6]
  oral bioavailability / serum concentrations after oral intake: had oral bioavailability

Source: patent US20210186947A1, “TOMM6-INTERACTING EXTRACTS AND COMPOUNDS FOR USE IN THE TREATMENT AND PROPHYLAXIS OF NERVOUS SYSTEM DISEASES, ATHEROSCLEROSIS, HEPATITIS B INFECTION AND HUMAN PAPILLOMA VIRUS (HPV) INFECTION” (ETH ZURICH, priority 2018, published 2021)
